Measurements from PMC12778052 (Science Advances, 2026).

Experiments:
[1] = lowest exposure (Cavg) quartile; cited from earlier work
Source text: Real-time assessment of tumor heterogeneity remains a critical challenge in optimizing targeted therapies. Despite the importance of sensitive assays for real-time insights into drug-tumor interactions, such tools remain limited ([6], [25]). Model-based approaches that integrate nonclinical and clinical data—such as PK and PD parameters—can facilitate efficacy and safety predictions ([26]). However, these models often fail to fully account for the dynamic complexities of tumor heterogeneity and intrinsic factors that affect drug PK/PD, especially in real time. This is particularly true for mac ...

human Nectin-4 = biological target: T1, human Nectin-4 (Homo sapiens, UniProt Q96NY8); test: SPR affinity for recombinant human Nectin-4; type: binding; details: human Nectin-4
T1 construct: purchased R&D Systems 2659-N4-050
T1 sequence (Q96NY8 32-349 limits assumed): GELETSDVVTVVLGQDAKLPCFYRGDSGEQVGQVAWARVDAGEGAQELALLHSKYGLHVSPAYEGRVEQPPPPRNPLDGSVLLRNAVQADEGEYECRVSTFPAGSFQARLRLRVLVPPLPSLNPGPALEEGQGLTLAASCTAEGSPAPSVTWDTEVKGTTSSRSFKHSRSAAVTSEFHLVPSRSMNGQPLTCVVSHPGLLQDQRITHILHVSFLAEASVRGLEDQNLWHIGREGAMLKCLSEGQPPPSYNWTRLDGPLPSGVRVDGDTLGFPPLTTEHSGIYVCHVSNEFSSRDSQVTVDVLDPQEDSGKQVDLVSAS
Experimental: (§1) The affinity of AJ647 for human and mouse Nectin-4 recombinant proteins was evaluated by SPR. The experiments were conducted using a Biacore T200 instrument with a CM5 chip at 25°C. The ligands used were His-tagged human Nectin-4 (R&D Systems, catalog no. 2659-N4-050, 44 kDa, 0.2 mg/ml stock concentration) and mouse Nectin-4 proteins (R&D Systems, catalog no. 3116-N4-050, 45 kDa, 0.2 mg/ml stock concentration), which were immobilized onto the CM5 chip. AJ647 (3057.5 Da, 10 mM stock concentration) was used as the analyte, which flowed over the ligand-immobilized surface. FC2 and FC4 was used as the experimental flow cell, while FC1 and FC3 served as the reference. An anti-His antibody (1 mg/ml stock concentration) was immobilized on all flow cells using standard amine coupling chemistry. […] Human Nectin-4 was captured onto FC2 at a level of ~600 RU, with a 1:20 dilution and 10 μg/ml diluted concentration in PBS-P. Mouse Nectin-4 was captured onto FC4 at a level of 600 RU, with a 1:20 dilution and 10 μg/ml diluted concentration in PBS-P. The theoretical maximum response (Rmax ) values were calculated on the basis of the captured response values (table S1), assuming a 1:1 interaction mechanism. […] All association and dissociation kinetics were evaluated by 1:1 kinetics model fitting.

mouse Nectin-4 = biological target: T2, mouse Nectin-4 (Mus musculus, UniProt Q8R007); test: SPR affinity for recombinant mouse Nectin-4; type: binding; details: mouse Nectin-4
T2 construct: purchased R&D Systems 3116-N4-050
T2 sequence (Q8R007 31-347 limits assumed): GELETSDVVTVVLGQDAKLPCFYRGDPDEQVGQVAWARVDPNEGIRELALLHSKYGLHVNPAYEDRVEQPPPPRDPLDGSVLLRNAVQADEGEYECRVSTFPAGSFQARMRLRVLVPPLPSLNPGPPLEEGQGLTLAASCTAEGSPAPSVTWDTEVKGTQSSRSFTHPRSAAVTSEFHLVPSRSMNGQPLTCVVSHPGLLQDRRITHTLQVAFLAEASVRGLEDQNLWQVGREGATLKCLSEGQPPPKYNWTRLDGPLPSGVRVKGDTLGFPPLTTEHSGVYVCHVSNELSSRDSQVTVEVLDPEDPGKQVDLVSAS
Experimental: as §1

physchem = type: physicochemical; details: pH 7.4
Experimental: The logD (pH 7.4) value was determined according to a literature procedure ([32]). Briefly, a 10-μl solution of [^68Ga]AJ647 (around 10 μCi) was added to a solution of 1-octanol (200 μl) mixed with phosphate-buffered saline (PBS) (190 μl) in a 1.5-ml centrifuge tube. After the mixture was vigorously shaken and vortexed, it was centrifuged at 3000 rpm for 5 min. Aliquots (10 μl) were removed from both phases, and the radioactivity was measured on an automated gamma counter (1282 Compugamma CS, Pharmacia/LKB Nuclear Inc., Gaithersburg, MD). The logD was calculated as the average log ratio value of the radioactivity in the 1-octanol fraction and the PBS fraction from the three samples.

SCaBER cells = test: In vitro binding of [^68Ga]AJ647 to SCaBER cells; type: cell-based; details: 1 × 10^6 cells, ~1 μCi, 30 min, 4°C, means ± SD, n = 4
Experimental: (§2) In vitro binding of [^68Ga]AJ647 to T24, SCaBER, RT112, UC9, UC14, and HT1376 cells was determined by incubating 1 × 10^6 cells with ~1 μCi of [^68Ga]AJ647 for 30 min at 4°C. After incubation, cells were washed three times with ice-cold PBS containing 0.1% Tween 20 and counted on an automated gamma counter. All cell radioactivity uptake studies were performed in quadruplicate for each cell line and repeated three times.

T24 cells = test: In vitro binding of [^68Ga]AJ647 to T24 cells; type: cell-based; details: T24 (low Nectin-4); 1 × 10^6 cells, ~1 μCi, 30 min, 4°C; means ± SD, n = 4
Experimental: as §2

Compound	response rate [1]	koff (human Nectin-4)	koff (mouse Nectin-4)	logD (physchem)	[^68Ga]AJ647 uptake (SCaBER cells)	[^68Ga]AJ647 uptake (T24 cells)
enfortumab vedotin [EV]	32%					
CSCC[C@@H]1NC(=O)[C@@H]2CSCCC(=O)N3CN(CN(C3)C(=O)CCSC[C@H](NC(=O)CCOCCOCCOCCOCCOCCOCCOCCOCCOCCOCCOCCOCCNC(=O)CN3CCN(CC(=O)O)CCN(CC(=O)O)CC3)C(=O)N3CCC[C@H]3C(=O)N[C@@H](Cc3cccc4ccccc34)C(=O)N[C@@H](CC(=O)O)C(=O)N2)C(=O)CCSC[C@@H](C(N)=O)NC(=O)[C@H](Cc2c[nH]c3ccccc23)NC(=O)[C@@H]2C[C@@H](O)CN2C(=O)[C@@H]2CCCN2C(=O)[C@H]([C@@H](C)O)NC(=O)[C@H](CO)NC(=O)[C@H](Cc2c[nH]c3ccccc23)NC(=O)[C@@H](CC(=O)O)NC(=O)[C@H](CCCCNC(=N)N)NC1=O [[^68Ga]AJ647, metal not drawn]		0.0106 ± 0.00159 s⁻¹	0.0101 ± 0.00295 s⁻¹	-2.06 ± 0.17	1.6 ± 0.13 %IA	0.2 ± 0.11 %IA
